Data from patent publication US10344060B2 (priority 2013, dated 2019).

Each compound was assayed against hNav1.7 (Homo sapiens, UniProt Q15858) (assay: cell-based). Conditions: ratio of PX tonic IC50 values; Table 11.
Sequence of hNav1.7 (Q15858 whole entry): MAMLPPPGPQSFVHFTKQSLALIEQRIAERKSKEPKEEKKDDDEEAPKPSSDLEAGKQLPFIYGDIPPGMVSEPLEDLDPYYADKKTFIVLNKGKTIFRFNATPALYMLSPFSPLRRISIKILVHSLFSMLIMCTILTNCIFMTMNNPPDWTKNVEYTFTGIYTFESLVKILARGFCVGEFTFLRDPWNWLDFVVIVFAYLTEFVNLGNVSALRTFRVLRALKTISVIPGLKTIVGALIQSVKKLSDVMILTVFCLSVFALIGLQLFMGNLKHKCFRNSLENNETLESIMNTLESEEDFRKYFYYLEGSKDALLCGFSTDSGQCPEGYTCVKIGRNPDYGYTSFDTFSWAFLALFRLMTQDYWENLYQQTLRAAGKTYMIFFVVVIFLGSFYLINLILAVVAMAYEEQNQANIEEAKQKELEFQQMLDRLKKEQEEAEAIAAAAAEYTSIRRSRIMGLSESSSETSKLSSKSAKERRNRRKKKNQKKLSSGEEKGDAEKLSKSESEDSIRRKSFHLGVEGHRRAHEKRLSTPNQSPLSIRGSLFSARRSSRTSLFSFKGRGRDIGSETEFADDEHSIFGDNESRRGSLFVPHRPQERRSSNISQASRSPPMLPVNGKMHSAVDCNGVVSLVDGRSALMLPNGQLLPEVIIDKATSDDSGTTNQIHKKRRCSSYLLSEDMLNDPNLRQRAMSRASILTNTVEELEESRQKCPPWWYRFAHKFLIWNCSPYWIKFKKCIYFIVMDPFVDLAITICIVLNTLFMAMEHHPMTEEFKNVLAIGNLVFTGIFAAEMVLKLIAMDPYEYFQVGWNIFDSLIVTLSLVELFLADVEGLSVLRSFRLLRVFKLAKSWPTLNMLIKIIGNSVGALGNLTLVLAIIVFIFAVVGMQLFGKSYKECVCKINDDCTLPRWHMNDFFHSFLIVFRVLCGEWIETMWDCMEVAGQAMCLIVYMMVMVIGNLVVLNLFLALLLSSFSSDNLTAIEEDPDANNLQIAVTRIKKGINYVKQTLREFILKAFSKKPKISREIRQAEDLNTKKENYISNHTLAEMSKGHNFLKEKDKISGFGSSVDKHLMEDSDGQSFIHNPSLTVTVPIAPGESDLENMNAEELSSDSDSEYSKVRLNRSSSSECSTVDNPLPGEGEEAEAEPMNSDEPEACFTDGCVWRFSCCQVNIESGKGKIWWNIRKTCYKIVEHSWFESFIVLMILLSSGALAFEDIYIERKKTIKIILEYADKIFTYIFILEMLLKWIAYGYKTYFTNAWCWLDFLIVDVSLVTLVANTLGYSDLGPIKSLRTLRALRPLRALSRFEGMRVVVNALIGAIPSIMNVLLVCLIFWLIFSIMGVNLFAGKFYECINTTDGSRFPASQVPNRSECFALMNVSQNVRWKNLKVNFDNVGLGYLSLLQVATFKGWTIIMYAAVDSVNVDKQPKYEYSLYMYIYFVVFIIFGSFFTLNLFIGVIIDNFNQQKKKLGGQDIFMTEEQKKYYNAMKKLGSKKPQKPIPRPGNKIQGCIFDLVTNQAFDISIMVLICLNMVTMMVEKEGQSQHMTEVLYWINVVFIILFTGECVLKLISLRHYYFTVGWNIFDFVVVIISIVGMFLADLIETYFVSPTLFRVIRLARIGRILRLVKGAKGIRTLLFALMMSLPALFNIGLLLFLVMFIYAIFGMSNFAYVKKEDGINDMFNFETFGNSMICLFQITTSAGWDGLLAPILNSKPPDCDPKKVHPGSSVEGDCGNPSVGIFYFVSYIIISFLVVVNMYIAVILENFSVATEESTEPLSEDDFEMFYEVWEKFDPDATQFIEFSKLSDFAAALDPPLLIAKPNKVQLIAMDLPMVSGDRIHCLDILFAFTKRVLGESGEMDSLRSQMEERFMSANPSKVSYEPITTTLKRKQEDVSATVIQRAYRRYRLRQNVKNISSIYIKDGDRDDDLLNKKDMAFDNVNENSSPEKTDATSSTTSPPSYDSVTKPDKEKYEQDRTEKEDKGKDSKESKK
Format: cell-based
In the case of `CC[C@H](C)[C@H](NC(=O)[C@H](Cc1ccc(O)cc1)NC(=O)[C@H](CCCCN)NC(=O)[C@H](CCCNC(=N)N)NC(=O)[C@@H]1CSSC[C@@H]2NC(=O)[C@H](C)NC(=O)[C@H](CCCNC(=N)N)NC(=O)[C@H](CCCCN)NC(=O)[C@H](CO)NC(=O)[C@H](CC(=O)O)NC(=O)[C@@H]3CSSC[C@H](NC(=O)[C@H](CCC(=O)O)NC(=O)[C@H](CC(C)C)NC(=O)CNC(=O)[C@H](CCC(=O)O)NC(=O)[C@H](CSSC[C@H](NC(=O)[C@@H](N)CCC(=O)O)C(=O)N[C@@H](CCC(N)=O)C(=O)N[C@@H](CCCCN)C(=O)N[C@@H](Cc4c[nH]c5ccccc45)C(=O)N[C@@H](CCSC)C(=O)N[C@@H](Cc4c[nH]c5ccccc45)C(=O)N[C@@H]([C@@H](C)O)C(=O)N3)NC2=O)C(=O)N[C@@H](CCCCN)C(=O)N[C@@H](CC(C)C)C(=O)N[C@@H](Cc2c[nH]c3ccccc23)C(=O)N1)C(N)=O` [compound 277], the Nav1.4/Nav1.7 is reported as 171 and the Nav1.5/Nav1.7 is reported as >1818.
In the case of `CCCC[C@@H]1NC(=O)[C@H](Cc2c[nH]c3ccccc23)NC(=O)[C@H](CCCCN)NC(=O)[C@H](CCC(N)=O)NC(=O)[C@@H](NC(=O)[C@H](Cc2ccc(O)cc2)NC(=O)[C@@H](N)CC(C)C)CSSC[C@@H]2NC(=O)[C@@H]3CSSC[C@@H](C(=O)N[C@@H](CCCNC(=N)N)C(=O)N[C@@H](CCCCN)C(=O)N[C@H](C(=O)N[C@H](C(N)=O)[C@@H](C)CC)[C@@H](C)CC)NC(=O)[C@H](Cc4c[nH]c5ccccc45)NC(=O)[C@H](CC(C)C)NC(=O)[C@H](CCCCN)NC(=O)[C@H](CSSC[C@H](NC(=O)[C@H]([C@@H](C)O)NC(=O)[C@H](Cc4c[nH]c5ccccc45)NC1=O)C(=O)N[C@@H](CC(=O)O)C(=O)N[C@@H](CO)C(=O)N[C@@H](CCCCN)C(=O)N[C@@H](CCCNC(=N)N)C(=O)N[C@@H](C)C(=O)N3)NC(=O)[C@H](CCCNC(=N)N)NC(=O)[C@H](CC(C)C)NC(=O)CNC(=O)[C@H](CCC(=O)O)NC2=O` [compound 361], the Nav1.4/Nav1.7 is reported as 0 and the Nav1.5/Nav1.7 is reported as 0.
`CCCC[C@@H]1NC(=O)[C@H](Cc2c[nH]c3ccccc23)NC(=O)[C@H](CCCCN)NC(=O)[C@H](CCC(N)=O)NC(=O)[C@@H](NC(=O)[C@H](Cc2ccc(O)cc2)NC(=O)[C@@H](N)CCC)CSSC[C@@H]2NC(=O)[C@@H]3CSSC[C@@H](C(=O)N[C@@H](CCCNC(=N)N)C(=O)N[C@@H](CCCCN)C(=O)N[C@H](C(=O)N[C@H](C(N)=O)[C@@H](C)CC)[C@@H](C)CC)NC(=O)[C@H](Cc4c[nH]c5ccccc45)NC(=O)[C@H](CC(C)C)NC(=O)[C@H](CCCCN)NC(=O)[C@H](CSSC[C@H](NC(=O)[C@H]([C@@H](C)O)NC(=O)[C@H](Cc4c[nH]c5ccccc45)NC1=O)C(=O)N[C@@H](CC(=O)O)C(=O)N[C@@H](CO)C(=O)N[C@@H](CCCCN)C(=O)N[C@@H](CCCNC(=N)N)C(=O)N[C@@H](C)C(=O)N3)NC(=O)[C@H](CCCNC(=N)N)NC(=O)[C@H](CC(C)C)NC(=O)CNC(=O)[C@H](CCC(=O)O)NC2=O` [compound 369] was tested, and the Nav1.4/Nav1.7 was 552 and the Nav1.5/Nav1.7 was 23418.
`CCCC[C@@H]1NC(=O)[C@H](Cc2c[nH]c3ccccc23)NC(=O)[C@H](CCCCN)NC(=O)[C@H](CCC(N)=O)NC(=O)[C@@H](NC(=O)[C@H](Cc2ccc(O)cc2)NC(=O)[C@@H](N)CCCC)CSSC[C@@H]2NC(=O)[C@@H]3CSSC[C@@H](C(=O)N[C@@H](CCCNC(=N)N)C(=O)N[C@@H](CCCCN)C(=O)N[C@H](C(=O)N[C@H](C(N)=O)[C@@H](C)CC)[C@@H](C)CC)NC(=O)[C@H](Cc4c[nH]c5ccccc45)NC(=O)[C@H](CC(C)C)NC(=O)[C@H](CCCCN)NC(=O)[C@H](CSSC[C@H](NC(=O)[C@H]([C@@H](C)O)NC(=O)[C@H](Cc4c[nH]c5ccccc45)NC1=O)C(=O)N[C@@H](CC(=O)O)C(=O)N[C@@H](CO)C(=O)N[C@@H](CCCCN)C(=O)N[C@@H](CCCNC(=N)N)C(=O)N[C@@H](C)C(=O)N3)NC(=O)[C@H](CCCNC(=N)N)NC(=O)[C@H](CC(C)C)NC(=O)CNC(=O)[C@H](CCC(=O)O)NC2=O` [compound 370] showed a Nav1.4/Nav1.7 of 21 and a Nav1.5/Nav1.7 of 3729.
`CCCC[C@@H]1NC(=O)[C@H](Cc2c[nH]c3ccccc23)NC(=O)[C@H](CCCCN)NC(=O)[C@H](CCC(N)=O)NC(=O)[C@@H](NC(=O)[C@H](Cc2ccc(O)cc2)NC(=O)[C@@H](C)N)CSSC[C@@H]2NC(=O)[C@@H]3CSSC[C@@H](C(=O)N[C@@H](CCCNC(=N)N)C(=O)N[C@@H](CCCCN)C(=O)N[C@H](C(=O)N[C@H](C(N)=O)[C@@H](C)CC)[C@@H](C)CC)NC(=O)[C@H](Cc4c[nH]c5ccccc45)NC(=O)[C@H](CC(C)C)NC(=O)[C@H](CCCCN)NC(=O)[C@H](CSSC[C@H](NC(=O)[C@H]([C@@H](C)O)NC(=O)[C@H](Cc4c[nH]c5ccccc45)NC1=O)C(=O)N[C@@H](CC(=O)O)C(=O)N[C@@H](CO)C(=O)N[C@@H](CCCCN)C(=O)N[C@@H](CCCNC(=N)N)C(=O)N[C@@H](C)C(=O)N3)NC(=O)[C@H](CCCNC(=N)N)NC(=O)[C@H](CC(C)C)NC(=O)CNC(=O)[C@H](CCC(=O)O)NC2=O` [compound 372] showed a Nav1.4/Nav1.7 of 5 and a Nav1.5/Nav1.7 of 764.
With `CCCC[C@@H]1NC(=O)[C@H](Cc2c[nH]c3ccccc23)NC(=O)[C@H](CCCCN)NC(=O)[C@H](CCC(N)=O)NC(=O)[C@@H](NC(=O)[C@H](Cc2ccc(O)cc2)NC(=O)[C@H](N)CC(C)C)CSSC[C@@H]2NC(=O)[C@@H]3CSSC[C@@H](C(=O)N[C@@H](CCCNC(=N)N)C(=O)N[C@@H](CCCCN)C(=O)N[C@H](C(=O)N[C@H](C(N)=O)[C@@H](C)CC)[C@@H](C)CC)NC(=O)[C@H](Cc4c[nH]c5ccccc45)NC(=O)[C@H](CC(C)C)NC(=O)[C@H](CCCCN)NC(=O)[C@H](CSSC[C@H](NC(=O)[C@H]([C@@H](C)O)NC(=O)[C@H](Cc4c[nH]c5ccccc45)NC1=O)C(=O)N[C@@H](CC(=O)O)C(=O)N[C@@H](CO)C(=O)N[C@@H](CCCCN)C(=O)N[C@@H](CCCNC(=N)N)C(=O)N[C@@H](C)C(=O)N3)NC(=O)[C@H](CCCNC(=N)N)NC(=O)[C@H](CC(C)C)NC(=O)CNC(=O)[C@H](CCC(=O)O)NC2=O` [compound 373] the Nav1.4/Nav1.7 was 190 and the Nav1.5/Nav1.7 was 2704.
With `CCCC[C@@H]1NC(=O)[C@H](Cc2c[nH]c3ccccc23)NC(=O)[C@H](CCCCN)NC(=O)[C@H](CCC(N)=O)NC(=O)[C@@H](NC(=O)[C@H](Cc2ccc(O)cc2)NC(=O)[C@H](N)Cc2ccccc2)CSSC[C@@H]2NC(=O)[C@@H]3CSSC[C@@H](C(=O)N[C@@H](CCCNC(=N)N)C(=O)N[C@@H](CCCCN)C(=O)N[C@H](C(=O)N[C@H](C(N)=O)[C@@H](C)CC)[C@@H](C)CC)NC(=O)[C@H](Cc4c[nH]c5ccccc45)NC(=O)[C@H](CC(C)C)NC(=O)[C@H](CCCCN)NC(=O)[C@H](CSSC[C@H](NC(=O)[C@H]([C@@H](C)O)NC(=O)[C@H](Cc4c[nH]c5ccccc45)NC1=O)C(=O)N[C@@H](CC(=O)O)C(=O)N[C@@H](CO)C(=O)N[C@@H](CCCCN)C(=O)N[C@@H](CCCNC(=N)N)C(=O)N[C@@H](C)C(=O)N3)NC(=O)[C@H](CCCNC(=N)N)NC(=O)[C@H](CC(C)C)NC(=O)CNC(=O)[C@H](CCC(=O)O)NC2=O` [compound 374] the Nav1.4/Nav1.7 was 19 and the Nav1.5/Nav1.7 was 1757.
Compound `CCCC[C@@H]1NC(=O)[C@H](Cc2c[nH]c3ccccc23)NC(=O)[C@H](CCCCN)NC(=O)[C@H](CCC(N)=O)NC(=O)[C@@H](NC(=O)[C@H](Cc2ccc(O)cc2)NC(=O)CCN)CSSC[C@@H]2NC(=O)[C@@H]3CSSC[C@@H](C(=O)N[C@@H](CCCNC(=N)N)C(=O)N[C@@H](CCCCN)C(=O)N[C@H](C(=O)N[C@H](C(N)=O)[C@@H](C)CC)[C@@H](C)CC)NC(=O)[C@H](Cc4c[nH]c5ccccc45)NC(=O)[C@H](CC(C)C)NC(=O)[C@H](CCCCN)NC(=O)[C@H](CSSC[C@H](NC(=O)[C@H]([C@@H](C)O)NC(=O)[C@H](Cc4c[nH]c5ccccc45)NC1=O)C(=O)N[C@@H](CC(=O)O)C(=O)N[C@@H](CO)C(=O)N[C@@H](CCCCN)C(=O)N[C@@H](CCCNC(=N)N)C(=O)N[C@@H](C)C(=O)N3)NC(=O)[C@H](CCCNC(=N)N)NC(=O)[C@H](CC(C)C)NC(=O)CNC(=O)[C@H](CCC(=O)O)NC2=O` [compound 376] has a Nav1.4/Nav1.7 of 3 and a Nav1.5/Nav1.7 of 731.
`CCCC[C@@H]1NC(=O)[C@H](Cc2c[nH]c3ccccc23)NC(=O)[C@H](CCCCN)NC(=O)[C@H](CCC(N)=O)NC(=O)[C@@H](NC(=O)[C@H](Cc2ccc(O)cc2)NC(=O)[C@@H](N)CCC(C)C)CSSC[C@@H]2NC(=O)[C@@H]3CSSC[C@@H](C(=O)N[C@@H](CCCNC(=N)N)C(=O)N[C@@H](CCCCN)C(=O)N[C@H](C(=O)N[C@H](C(N)=O)[C@@H](C)CC)[C@@H](C)CC)NC(=O)[C@H](Cc4c[nH]c5ccccc45)NC(=O)[C@H](CC(C)C)NC(=O)[C@H](CCCCN)NC(=O)[C@H](CSSC[C@H](NC(=O)[C@H]([C@@H](C)O)NC(=O)[C@H](Cc4c[nH]c5ccccc45)NC1=O)C(=O)N[C@@H](CC(=O)O)C(=O)N[C@@H](CO)C(=O)N[C@@H](CCCCN)C(=O)N[C@@H](CCCNC(=N)N)C(=O)N[C@@H](C)C(=O)N3)NC(=O)[C@H](CCCNC(=N)N)NC(=O)[C@H](CC(C)C)NC(=O)CNC(=O)[C@H](CCC(=O)O)NC2=O` [compound 377] gave a Nav1.4/Nav1.7 of 13 and a Nav1.5/Nav1.7 of 615.
`CCCC[C@@H]1NC(=O)[C@H](Cc2c[nH]c3ccccc23)NC(=O)[C@H](CCCCN)NC(=O)[C@H](CCC(N)=O)NC(=O)[C@@H](NC(=O)[C@H](Cc2ccc(O)cc2)NC(=O)[C@@H](N)CCc2ccccc2)CSSC[C@@H]2NC(=O)[C@@H]3CSSC[C@@H](C(=O)N[C@@H](CCCNC(=N)N)C(=O)N[C@@H](CCCCN)C(=O)N[C@H](C(=O)N[C@H](C(N)=O)[C@@H](C)CC)[C@@H](C)CC)NC(=O)[C@H](Cc4c[nH]c5ccccc45)NC(=O)[C@H](CC(C)C)NC(=O)[C@H](CCCCN)NC(=O)[C@H](CSSC[C@H](NC(=O)[C@H]([C@@H](C)O)NC(=O)[C@H](Cc4c[nH]c5ccccc45)NC1=O)C(=O)N[C@@H](CC(=O)O)C(=O)N[C@@H](CO)C(=O)N[C@@H](CCCCN)C(=O)N[C@@H](CCCNC(=N)N)C(=O)N[C@@H](C)C(=O)N3)NC(=O)[C@H](CCCNC(=N)N)NC(=O)[C@H](CC(C)C)NC(=O)CNC(=O)[C@H](CCC(=O)O)NC2=O` [compound 379] was tested, and the Nav1.4/Nav1.7 was 10 and the Nav1.5/Nav1.7 was 916.
